Measured values taken from patent publication US10091998B2, “Tetrazolinone compound and use thereof” (SUMITOMO CHEMICAL COMPANY, LIMITED, priority 2013, dated 2018).

System: second-instar larvae of diamondback moth (Plutella xylostella)
Test: Test Example 11: diamondback moth mortality on treated cabbage
Assay type: in vivo
Conditions: 120 h, 500 ppm spray on cabbage, 20 mL per cup, 5 days at 25° C.
Experimental: As a test chemical solution used in the present test example, a water dilution (test chemical solution) was prepared so as to contain a predetermined concentration (500 ppm) of any one compound of the present compounds 1, 15, 17, and 55.
The test chemical solution was sprayed over cabbage in three-leaf stage sowed and grown in a polyethylene at a rate of 20 mL per cup. After drying the chemical solution, the stem and leaf portions were cut and disposed in a 50 mL cup. Five (5) heads of second-instar larvae of diamondback moth (Plutella xylostella) were released and then a lid was put on the cup. After storage at 25° C. for 5 days, the number of the dead insects was counted and mortality was calculated by the following equation. Mortality (%)=(number of dead insects/number of tested insects)×100

SMILES | mortality at 500 ppm [%]
Cc1cccc(-n2nnn(C)c2=O)c1OCc1ccccc1 [Present Compound 1, 1-(2-phenylmethoxy-3-methylphenyl)-4-methyl-1,4-dihydrotetrazol-5-one] | ≥ 80
Cc1ccc(-c2ccc(COc3c(C)cccc3-n3nnn(C)c3=O)c(C)c2)cc1 [Present Compound 15] | ≥ 80
Cc1cc(-c2ccccc2C)ccc1COc1c(C)cccc1-n1nnn(C)c1=O [Present Compound 17] | ≥ 80
COc1ccccc1-c1csc(COc2c(C)cccc2-n2nnn(C)c2=O)n1 [Present Compound 55, 2-({[1-(4,5-dihydro-4-methyl-5-oxo-1H-tetrazol-1-yl)-3-methylphenyl-2-yl]oxy}methyl)-4-(2-methoxyphenyl)thiazole] | ≥ 80
